Converted amounts (≈) assume the structure as drawn.
Assays:
Format in all cases: functional
Reticulitermes flavipes [1] = assay: Antifeedant activity against Reticulitermes flavipes assessed as feeding inhibition after 3 days by choice paper disk assay; conditions: 72 h, read-out: ED50 (the source's name)
Reticulitermes flavipes [2] = assay: Antifeedant activity against Reticulitermes flavipes assessed as compound consumption at 5.5 ug/disk after 10 days by no-choice paper disk assay
Reticulitermes flavipes [3] = assay: Antitermitic activity against Reticulitermes flavipes assessed as mortality at 5.5 ug/disk after 10 days by no-choice paper disk assay; conditions: 240 h
Reticulitermes flavipes [4] = assay: Ratio of mortality to compound consumption in Reticulitermes flavipes at 5.5 ug/disk after 10 days
Reticulitermes flavipes [5] = assay: Antifeedant activity against Reticulitermes flavipes assessed as feeding inhibition at 2.7 ug/disk after 3 days by choice paper disk assay; conditions: 72 h

C/C1=C\[C@H]2[C@@H]([C@@H](O)C/C(C)=C/CC1)C2(C)C [PARTHENIOL]
EC50 (Reticulitermes flavipes [1]): 490 µg/mL (≈ 2230 µM) | Activity (Reticulitermes flavipes [2]): 65% | mortality at 5.5 µg/disc (Reticulitermes flavipes [3]): 71% | Ratio (Reticulitermes flavipes [4]): 1.1 | inhibition at 2.7 µg/disc (Reticulitermes flavipes [5]): 46%

COC1=C[C@]2(C)CCC(C(C)C)=CC2=C(C)C1=O [ARGENTONE]
EC50 (Reticulitermes flavipes [1]): 85.7 µg/mL (≈ 348 µM) | Activity (Reticulitermes flavipes [2]): 33% | mortality at 5.5 µg/disc (Reticulitermes flavipes [3]): 66% | Ratio (Reticulitermes flavipes [4]): 2 | inhibition at 2.7 µg/disc (Reticulitermes flavipes [5]): 70.5%

CC(C)(O)[C@@H]1CC[C@](C)([C@H]2[C@@H](O)C[C@@]3(C)C4=C(CC[C@]23C)[C@@]2(C)CCC(=O)C(C)(C)[C@@H]2CC4)O1 [INCANILIN]
EC50 (Reticulitermes flavipes [1]): > 1000 µg/mL | Activity (Reticulitermes flavipes [2]): 16% | mortality at 5.5 µg/disc (Reticulitermes flavipes [3]): 0% | Ratio (Reticulitermes flavipes [4]): 0 | inhibition at 2.7 µg/disc (Reticulitermes flavipes [5]): 30.8%

COc1ccc(C(=O)O[C@H]2C/C(C)=C/CC/C(C)=C/[C@H]3[C@@H]2C3(C)C)cc1 [GUAYULIN B]
EC50 (Reticulitermes flavipes [1]): > 1000 µg/mL | Activity (Reticulitermes flavipes [2]): 72% | mortality at 5.5 µg/disc (Reticulitermes flavipes [3]): 0% | Ratio (Reticulitermes flavipes [4]): 0 | inhibition at 2.7 µg/disc (Reticulitermes flavipes [5]): 31.9%

CC(=O)O[C@H]1C(=O)O[C@@H]2C[C@H]3C(C)=CC(=O)[C@@H](O)[C@]3(C)[C@H]3[C@]4(O)OC[C@]32[C@@H]1[C@@H](C)[C@H]4O [HOLACANTHONE]
EC50 (Reticulitermes flavipes [1]): > 1000 µg/mL | Activity (Reticulitermes flavipes [2]): 34% | mortality at 5.5 µg/disc (Reticulitermes flavipes [3]): 24% | Ratio (Reticulitermes flavipes [4]): 0.7 | inhibition at 2.7 µg/disc (Reticulitermes flavipes [5]): 39.4%

— ChEMBL document CHEMBL3044936, “Antifeedant properties of natural products from Parthenium argentatum, P. argentatumP. tomentosum (Asteraceae) and Castela emoryi (Simaroubeaceae) against Reticulitermes flavipes” (1999)
